According to the CheMixHub viscosity set:

Experiment: xn = mol fraction of the nth substance listed

CCOC(=O)CCl + Brc1ccccc1
viscosity [mPa·s], 101.3 kPa
Settings | x1 = 0.1089 | x1 = 0.2034 | x1 = 0.3024 | x1 = 0.3976 | x1 = 0.5011 | x1 = 0.6018 | x1 = 0.6992 | x1 = 0.7963 | x1 = 0.8948
298.15 K | 1.079 | 1.079 | 1.08 | 1.082 | 1.085 | 1.087 | 1.092 | 1.096 | 1.098
303.15 K | 1.012 | 1.011 | 1.01 | 1.011 | 1.012 | 1.014 | 1.017 | 1.018 | 1.01
308.15 K | 0.947 | 0.943 | 0.94 | 0.938 | 0.938 | 0.942 | 0.941 | 0.941 | 0.939

CCCCCCCCN(CCCCCCCC)CCCCCCCC + C1CCCCC1
303.15 K, 101 kPa
Settings | viscosity [mPa·s]
x2 = 0.1179 | 6.488
x2 = 0.1582 | 6.33
x2 = 0.3086 | 5.344
x2 = 0.4099 | 4.83
x2 = 0.5029 | 4.33
x2 = 0.6074 | 3.468
x2 = 0.7022 | 2.757
x2 = 0.8023 | 2.054
x2 = 0.902 | 1.416

CCCCOCCO + C1CCCCC1
viscosity [mPa·s], 101 kPa
Settings | 298.15 K | 308.15 K
x1 = 0.0557 | 0.95 | 0.79
x1 = 0.1501 | 1.046 | 0.866
x1 = 0.2504 | 1.162 | 0.958
x1 = 0.3543 | 1.3 | 1.066
x1 = 0.4488 | 1.443 | 1.178
x1 = 0.5025 | 1.532 | 1.248
x1 = 0.5493 | 1.616 | 1.313
x1 = 0.6485 | 1.813 | 1.465
x1 = 0.7494 | 2.043 | 1.642
x1 = 0.8511 | 2.311 | 1.848
x1 = 0.9556 | 2.631 | 2.091

COC(=O)c1ccccc1 + C1CCCCC1
101 kPa, x1 = 0.5996
Settings | viscosity [mPa·s]
303.15 K | 0.9344
308.15 K | 0.8826
313.15 K | 0.8403

c1ccc2c(c1)CCCC2 + C1CCCCC1
298.15 K, 101 kPa
Settings | viscosity [mPa·s]
x1 = 0.1649 | 0.9811
x1 = 0.3447 | 1.127
x1 = 0.5442 | 1.324
x1 = 0.7597 | 1.619

C=CC(=O)OC(C)(C)C + C1CCOC1
viscosity [mPa·s], 101 kPa
Settings | 293.15 K | 298.15 K | 303.15 K | 308.15 K | 313.15 K | 318.15 K
x2 = 0.0736 | 0.8645 | 0.7935 | 0.7273 | 0.6717 | 0.622 | 0.579
x2 = 0.1489 | 0.8229 | 0.757 | 0.6954 | 0.6433 | 0.5964 | 0.5554
x2 = 0.2121 | 0.7896 | 0.7278 | 0.6699 | 0.6206 | 0.5759 | 0.5365
x2 = 0.2773 | 0.7568 | 0.6992 | 0.6449 | 0.5984 | 0.5558 | 0.5179
x2 = 0.362 | 0.7164 | 0.664 | 0.6143 | 0.5711 | 0.5312 | 0.495
x2 = 0.4382 | 0.6823 | 0.6343 | 0.5886 | 0.5482 | 0.5105 | 0.4758
x2 = 0.5024 | 0.6551 | 0.6107 | 0.5681 | 0.53 | 0.494 | 0.4604
x2 = 0.5815 | 0.6237 | 0.5835 | 0.5446 | 0.5091 | 0.475 | 0.4427
x2 = 0.6532 | 0.597 | 0.5605 | 0.5247 | 0.4914 | 0.4589 | 0.4276
x2 = 0.7268 | 0.5716 | 0.5385 | 0.5058 | 0.4745 | 0.4435 | 0.4131
x2 = 0.7921 | 0.5505 | 0.5204 | 0.4902 | 0.4607 | 0.4308 | 0.4012
x2 = 0.8698 | 0.5273 | 0.5006 | 0.4732 | 0.4455 | 0.4168 | 0.3879
x2 = 0.9352 | 0.5094 | 0.4853 | 0.4601 | 0.4337 | 0.4059 | 0.3776
